Tests used:
[1] = molecular target: PHF8 (Homo sapiens, UniProt Q9UPP1); conditions: King et al. 2010; cited from earlier work
[2] = system: JMJD2A in HeLa cells; conditions: read-out: IC50 H3K9me3 demethylation by JMJD2A, King et al. 2010; cited from earlier work
[3] = system: JMJ family demethylases, including several variants of JMJD2 and JMJD1; conditions: Kruidenier et al. 2012; cited from earlier work
[4] = system: MM cell lines; test: Cell growth inhibition assay (MTT) in MM cell lines; assay type: cell-based, human; conditions: MM cell lines, 48 hours, MTT (FIG. 1A)
Procedure: To measure proliferation of MM cells, the rate of DNA synthesis was measured by ^3[H]-thymidine (Perkin-Elmer) uptake.
The growth inhibitory effect of Merck60 (HDACL, 2 inhibitor previously reported as compound #60 by Method et al. Bioorg. Med. Chem. Lett. 2008. 18(3):973-8) versus MS275 (HDAC1, 2, 3 inhibitor) was examined in MM cell lines using MTT assay. MM cells were cultured with Merck60 (left panel) or MS275 (right panel) for 48 hours. Cell growth was assessed by MTT assay. All experiments were performed 3 times in quadruplicate. Data represent mean±SD.
Cell growth was assessed by MTT assay. All experiments were performed 3 times in quadruplicate. Data represent mean±SD.

[5] = system: RPMI8226 cells; test: Immunoblot of histone acetylation in RPMI8226 cells; assay type: cell-based, human; conditions: RPMI8226, 12 h, compared with Merck60 (FIG. 1C)
[6] = system: RPMI8226 cells; test: Combination with bortezomib, MTT cytotoxicity, combination index; assay type: cell-based, human; conditions: for CI (combination index): RPMI8226, MTT, 24 h
Procedure: The combined effect of drugs was analyzed by isobologram analysis using the Compusyn software program (ComboSyn, Inc.); a combination index (CI)<1 is indicative of a synergistic effect.
All experiments were performed 3 times in quadruplicate. Data represent mean±SD (FIG. 7D).

[7] = system: HDAC3 knockdown cells; test: MTT cell growth in HDAC3 knockdown cells; assay type: cell-based, human
Procedure: HDAC1, HDAC2 and HDAC3 pLKO.1 shRNA vectors were obtained from the RNA Interference Screening Facility at the Dana-Farber Cancer institute. Recombinant lentivirus was produced and infection of MM cells was performed using standard methods in the art.
In addition, the effect of bortezomib on HDAC3 knockdown cells was examined. RPMI8226 (FIG. 7B, left panel) and MM.1S (FIG. 7B, right panel) cells were infected with Luc or HDAC3 (#1 and #2) shRNAs. Cells were then cultured with or without bortezomib (3 nM) for 48 hours and cell growth was assessed by MTT assay. Data represent mean±SD from triplicate cultures.
Also, experiments were conducted to determine whether dual inhibition of both HDAC3 and HDAC6 was more cytotoxic than either HDAC3 or HDAC6 when combined with bortezomib. Cell growth was assayed by MTT assay in the presence of Luc (control), sh1 or sh2 shRNAs against HDAC3 alone, or in combination with a selective HDAC6 inhibitor—tubastatin-A, or in combination with both tubastatin-A and bortezomib.

[8] = system: pSTAT3 (Tyr705); test: Immunoblot of STAT3 phosphorylation in MM cells; assay type: cell-based, human; conditions: RPMI8226 infected with shRNAs, bortezomib 5 nM, 6 hours (FIG. 7C)
Procedure: MM cells were harvested and lysed using sodium dodecyl sulfate-polyacrylamide gel electrophoresis (SDS-PAGE) sample buffer containing 60 mM Tris-HCl, pH 6.8, 2% SDS, 10% glycerol, 0.005% bromophenol blue, 5 mM ethylenediaminetetraacetic acid, 5 mM NaF, 2 mM […], 1 mM phenylmethylsulfonyl fluoride (PMSF), 5 μg/mL leupeptin, and 5 μg/mL aprotinin; and then heated at 100° C. for 5 min. After the determination of protein concentration using DC protein assay (Bio-Rad, Hercules, Calif.), β-mercaptoethanol (β-ME) was added to the whole-cell lysates to a 2% final β-ME concentration. The whole-cell lysates were subjected to SDS-PAGE, transferred to nitrocellulose membranes (Bio-Rad, Hercules, Calif.) or polyvinylidene fluoride membranes (Millipore, Billerica, Mass.), and immunoblotted with anti-histone H3, -HDAC1, -HDAC2, -HDAC3, -Acetyl-histone H2A (Lysine 5) (Ac-H2AK5), -Acetyl-histone H2B (lysine 5) (Ac-H2 BK5), -Acetyl-histone H3 (lysine 9) (Ac-H3K9), -Acetyl-histone H4 (lysine 8) (Ac-H4K8), -glyceraldehyde-3-phosphate dehydrogenase (GAPDH), -poly (ADP-ribose) polymerase (PARP), -caspase-3, -caspase-8, -caspase-9, -Signal transducers and activators of transcription 3 (STAT3), -phospho-STAT3 (pSTAT3) (tyrosine 705), -pSTAT3 (serine 727), -p21, -Janus kinase 2 (JAK2), -acetylated-Lysine (Ac-K), and anti-phosphorylated-tyrosine antibodies (Abs; Cell Signaling Technology, Beverly, Mass.).
MM.1S, U266, and INA6 cells were cultured with DMSO control or LBH589 (50 and 100 nM) for 8 h.
MM.1S cells pretreated with or without 50 nM LBH589 for 8 hours were then treated with IL-6 (10 ng/mL) or BMSC culture supernatants (#1 and #2) for 15 minutes. Whole cell lysates were subjected to immunoblotting with anti-pSTAT3 (Tyr705) and STAT3 Abs.
In addition, INA-6 cells were cultured with DMSO control, LBH589 (50 nM), TSA (1 μM) or SAHA (2 μM) for 8 hours. Whole cell lysates were subjected to immunoblotting with anti-pSTAT3 (Tyr705), STAT3, and GAPDH Abs.
Whole cell lysates were subjected to immunoblotting with anti-pSTAT3 (Tyr705), -STAT3, -pERK1/2 (Thr202/204), and -ERK1/2 Abs (FIG. 6G).
See, e.g., Hideshima et al. Blood. 2006, 107:4053-4062. Since bortezomib upregulates activated STAT3 in head and neck squamous cell carcinoma (see, e.g., Li et al. Mol Cancer Ther 2009. 8:2211-2220), experiments were conducted to test whether bortezomib enhances p-STAT3 in MM cells. RPMI8226 cells were infected with Luc, HDAC1 (sh1), HDAC2 (sh1) or HDAC3 (sh1) shRNAs and then treated with or without bortezomib (5 nM) for 6 hours. Whole cell lysates were subjected to immunoblotting with anti-STAT3, -pSTAT3 (Tyr705), -pERK1/2 (Thr202/204) and -ERK1/2 Abs.

Sequence of PHF8 (Q9UPP1 whole entry, species assumed): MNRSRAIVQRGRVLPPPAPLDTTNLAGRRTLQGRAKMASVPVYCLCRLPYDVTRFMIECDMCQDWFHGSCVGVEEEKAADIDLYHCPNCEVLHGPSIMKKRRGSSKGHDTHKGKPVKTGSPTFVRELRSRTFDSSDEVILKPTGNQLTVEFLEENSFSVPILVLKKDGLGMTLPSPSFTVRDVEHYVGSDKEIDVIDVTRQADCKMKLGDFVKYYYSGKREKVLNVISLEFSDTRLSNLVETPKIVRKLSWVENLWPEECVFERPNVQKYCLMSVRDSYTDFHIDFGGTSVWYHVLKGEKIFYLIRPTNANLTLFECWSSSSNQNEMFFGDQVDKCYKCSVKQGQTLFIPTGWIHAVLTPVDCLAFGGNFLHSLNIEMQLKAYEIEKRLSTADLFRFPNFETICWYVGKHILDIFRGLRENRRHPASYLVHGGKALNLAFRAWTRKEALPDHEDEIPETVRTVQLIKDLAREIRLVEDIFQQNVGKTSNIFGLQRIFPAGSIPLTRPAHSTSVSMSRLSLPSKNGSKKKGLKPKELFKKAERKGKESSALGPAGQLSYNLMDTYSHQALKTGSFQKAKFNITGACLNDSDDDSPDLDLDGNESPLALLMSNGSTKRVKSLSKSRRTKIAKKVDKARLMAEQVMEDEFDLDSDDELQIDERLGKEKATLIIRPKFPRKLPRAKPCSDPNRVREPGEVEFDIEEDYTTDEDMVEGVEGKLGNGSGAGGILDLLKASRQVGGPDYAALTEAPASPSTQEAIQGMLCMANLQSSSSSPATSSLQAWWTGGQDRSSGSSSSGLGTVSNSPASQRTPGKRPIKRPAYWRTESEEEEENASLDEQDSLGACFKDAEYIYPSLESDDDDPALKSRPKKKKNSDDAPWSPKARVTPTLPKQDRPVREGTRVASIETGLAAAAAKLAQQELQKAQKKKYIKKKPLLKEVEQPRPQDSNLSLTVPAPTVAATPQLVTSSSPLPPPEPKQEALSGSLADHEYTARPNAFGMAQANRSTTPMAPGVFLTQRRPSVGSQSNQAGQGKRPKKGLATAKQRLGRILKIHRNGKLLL

O=C(O)c1ccc(O)c2ncccc12 [IOX1, 8-hydroxy-5-quinolinecarboxylic acid]
IC50 [1]: 13.3 µM
IC50 [2]: 87 µM

O=C([O-])CCNc1cc(N2CCc3ccccc3CC2)nc(-c2ccccn2)n1.[Na+] [GSK J1, 3-((6-(4,5-dihydro-1H-benzo[d]azepin-3(2H)-yl)-2-(pyridin-2-yl)pyrimidin-4-yl)amino)propanoate, monosodium salt]
activity against a panel of additional JMJ family demethylases [3]: inactive

Nc1ccccc1NC(=O)c1ccc(CNC(=O)OCc2cccnc2)cc1 [MS275]
MM cell growth inhibition [4]: significant MM cell growth inhibition
acetylation of histones (H2A, H2B, H3 and H4) [5]: more potently induced acetylation of histones
CI (combination index) ([6]; HDAC inhibitor 1 μM + bortezomib 4 nM): 0.81
CI (combination index) ([6]; HDAC inhibitor 2 μM + bortezomib 2 nM): 0.56
CI (combination index) ([6]; HDAC inhibitor 2 μM + bortezomib 3 nM): 0.63
CI (combination index) ([6]; HDAC inhibitor 2 μM + bortezomib 4 nM): 0.76
CI (combination index) ([6]; HDAC inhibitor 3 μM + bortezomib 2 nM): 0.53
CI (combination index) ([6]; HDAC inhibitor 3 μM + bortezomib 3 nM): 0.62
CI (combination index) ([6]; HDAC inhibitor 3 μM + bortezomib 4 nM): 0.77
cytotoxicity in combination with bortezomib ([6]; RPMI8226, bortezomib 0-4 nM + 1-3 μM, 24 hours (FIG. 7A)): synergistic cytotoxicity

CN1CCc2c(c3ccccc3n2Cc2ccc(C(=O)NO)cc2)C1 [tubastatin-A]
cytotoxicity of combined HDAC3 knockdown with bortezomib ([7]; MTT, tubastatin-A added (FIG. 8B)): further enhanced cytotoxicity

CC(C)CC(NC(=O)[C@H](Cc1ccccc1)NC(=O)c1cnccn1)B(O)O (stereo in doubt) [bortezomib, [(1R)-3-methyl-1-[[(2S)-1-oxo-3-phenyl-2-[(pyrazinylcarbonyl)amino]propyl]amino]butyl]boronic acid]
p-STAT3 [8]: upregulated p-STAT3
cytotoxicity in HDAC3 knockdown cells ([7]; RPMI8226 and MM.1S with HDAC3 shRNAs, bortezomib 3 nM, 48 hours, MTT (FIG. 7B)): significantly enhances cytotoxicity
